Earlier results, collected in US20070117837A1, “Process for the preparation of amorphous form of a platelet aggregation inhibitor drug” (EGIS GYOGYSZERGYAR RT., priority 2003, published 2007).

Details: amorphous form compared with its morphologically uniform crystalline forms

- biological availability: better
Compound: CC(C)c1c(C(=O)Nc2ccccc2)c(-c2ccccc2)c(-c2ccc(F)cc2)n1CC[C@@H](O)C[C@@H](O)CC(=O)O [atorvastatine calcium]
